Data as given in US9370520B2, “Macrocyclic LRRK2 kinase inhibitors” (IPSEN PHARMA S.A.S., priority 2011, dated 2016).
Where two headings read alike, the source gives them in different places.

Columns and labels:
truncated LRRK2 = molecular target: T1, truncated LRRK2 (Homo sapiens, UniProt Q5S007); assay: radiometric protein kinase assay (33PanQinase Activity Assay, Protocol 2), truncated LRRK2; type: biochemical
T1 construct: a truncated LRRK2 enzyme (GST tagged LRRK2 of amino acids 970-2527); GST; purchased Invitrogen Corporation
Experimental: (§1) The inhibition of LRRK2 and LRRK1 kinase was assessed using LRRK2 and LRRK1 recombinant protein in an in vitro peptide-based kinase assay.
A radiometric protein kinase assay (^33PanQinase® Activity Assay) is used for measuring the kinase activity. All assays are performed in 96-well FlashPlates™ from Perkin Elmer in a 50 μl reaction volume. The reaction cocktail is pipetted in 4 steps in the following order: • 10 μl of non-radioactive ATP solution (in H2O) • 25 μl of assay buffer/[γ-^33P]-ATP mixture • 5 μl of test sample in 10% DMSO • 10 μl of enzyme/substrate mixture
The kinase is obtained from Invitrogen Corporation.
The reaction cocktails were incubated at 30° C. for 60 minutes. The reaction was stopped with 50 μl of 2% (v/v) H3PO4, plates were aspirated and washed two times with 200 μl 0.9% (w/v) NaCl. Incorporation of ^33Pi (counting of “cpm”) was determined with a microplate scintillation counter.

[1] = not given; remark: listed apart in the source
[2] = molecular target: T2, truncated LRRK2 (GST tagged LRRK2 of amino acids 970-2527) (Homo sapiens, UniProt Q5S007); assay: LRRKtide 32P-ATP peptide kinase assay (Protocol 1), truncated LRRK2; type: biochemical; settings: 10 μM ATP, 200 μM lrrktide
T2 construct: GST tagged LRRK2 of amino acids 970-2527; GST
Experimental: as §1
(§2) LRRK2 protein is prepared as described in Daniëls et al. ((2011) J Neurochem 116, 304-315.). HEK293T cells are transfected with pCHMWS-3xflag-LRRK2 plasmid using polyethyleneimine and lysed after 48-72 hours in lysis buffer (Tris 20 mM pH 7.5, NaCl 150 mM, EDTA 1 mM, Triton 1%, Glycerol 10%, protease inhibitor cocktail). Lysates are cleared by centrifugation at 20,000 g for 10 minutes and incubated with normal mouse IgGs bound to agarose beads to remove proteins aspecifically binding to agarose or mouse IgGs. After removal of the IgG bead slurry, lysates are incubated for 3 to 18 hours with flagM2 bound to agarose beads. Beads are washed 4 times with wash buffer (Tris 25 mM pH 7.5, NaCl 400 mM, Triton 1%) and rinsed in kinase buffer (Tris-HCl 25 mM pH 7.5, 10 mM MgCl2, 2 mM dithiothreitol (DTT), 0.02% triton, 5 mM beta-glycerophosphate, 0.1 mM Na3VO4). Proteins are eluted in 5 volumes of kinase buffer containing 100 μg/ml 3xflag peptide. For assays using purified protein bound to affinity resin, affinity beads are resuspended in an equal volume of kinase buffer unless otherwise indicated. Purity and concentration are assessed by SDS-PAGE (3-8% tris-acetate SDS gel) and Coomassie Brilliant Blue staining or silver staining. Alternatively, a truncated LRRK2 enzyme (GST tagged LRRK2 of amino acids 970-2527) and a truncated LRRK2-G2019S (GST tagged LRRK2-G2019S of amino acids 970-2527) are used.
(§3) For Irrktide phosphorylation, recombinant LRRK2 is incubated with 6 μCi of 32P-ATP (3000 Ci/mmol), 200 μM Irrktide, 10 μM ATP and compound or solvent per 40 μl reaction for 30 minutes at 30° C. Compounds are tested at concentrations ranging from […]; the final amount of DMSO in the kinase reaction is 1%. Reactions are stopped and spotted to P81 phosphocellulose paper and washed 4×10 minutes in 75 mM phosphoric acid. Lrrktide phosphorylation levels are measured via autoradiography. Kinase assays are performed for each condition in triplicate.
(§4) LRRKtide phosphorylation levels are plotted vs. the log of the compound concentration and inhibition curves are fitted from which IC50 values are derived.

[3] = molecular target: T3, truncated LRRK2-G2019S (GST tagged LRRK2-G2019S of amino acids 970-2527) (Homo sapiens, UniProt Q5S007, G2019S); assay: LRRKtide 32P-ATP peptide kinase assay (Protocol 1), truncated LRRK2-G2019S; type: biochemical; settings: 10 μM ATP, 200 μM lrrktide
T3 construct: GST tagged LRRK2-G2019S of amino acids 970-2527; GST
Experimental: as §1, §2, §3, §4

full-length LRRK2 = molecular target: T4, full-length LRRK2 (Homo sapiens, UniProt Q5S007); assay: LRRKtide 32P-ATP peptide kinase assay (Protocol 1), full-length LRRK2; type: biochemical; settings: 10 μM ATP, 200 μM lrrktide
T4 construct: full-length; made in house; host or cells: HEK293T
Experimental: as §1, §2
as §3, with “triplicate. […]” for “triplicate.”

[4] = Protocol 2, ATP 0.3 μM, substrate GSK3(14-27), read-out: IC50 for truncated LRRK2

T1 sequence (Q5S007 970-2527): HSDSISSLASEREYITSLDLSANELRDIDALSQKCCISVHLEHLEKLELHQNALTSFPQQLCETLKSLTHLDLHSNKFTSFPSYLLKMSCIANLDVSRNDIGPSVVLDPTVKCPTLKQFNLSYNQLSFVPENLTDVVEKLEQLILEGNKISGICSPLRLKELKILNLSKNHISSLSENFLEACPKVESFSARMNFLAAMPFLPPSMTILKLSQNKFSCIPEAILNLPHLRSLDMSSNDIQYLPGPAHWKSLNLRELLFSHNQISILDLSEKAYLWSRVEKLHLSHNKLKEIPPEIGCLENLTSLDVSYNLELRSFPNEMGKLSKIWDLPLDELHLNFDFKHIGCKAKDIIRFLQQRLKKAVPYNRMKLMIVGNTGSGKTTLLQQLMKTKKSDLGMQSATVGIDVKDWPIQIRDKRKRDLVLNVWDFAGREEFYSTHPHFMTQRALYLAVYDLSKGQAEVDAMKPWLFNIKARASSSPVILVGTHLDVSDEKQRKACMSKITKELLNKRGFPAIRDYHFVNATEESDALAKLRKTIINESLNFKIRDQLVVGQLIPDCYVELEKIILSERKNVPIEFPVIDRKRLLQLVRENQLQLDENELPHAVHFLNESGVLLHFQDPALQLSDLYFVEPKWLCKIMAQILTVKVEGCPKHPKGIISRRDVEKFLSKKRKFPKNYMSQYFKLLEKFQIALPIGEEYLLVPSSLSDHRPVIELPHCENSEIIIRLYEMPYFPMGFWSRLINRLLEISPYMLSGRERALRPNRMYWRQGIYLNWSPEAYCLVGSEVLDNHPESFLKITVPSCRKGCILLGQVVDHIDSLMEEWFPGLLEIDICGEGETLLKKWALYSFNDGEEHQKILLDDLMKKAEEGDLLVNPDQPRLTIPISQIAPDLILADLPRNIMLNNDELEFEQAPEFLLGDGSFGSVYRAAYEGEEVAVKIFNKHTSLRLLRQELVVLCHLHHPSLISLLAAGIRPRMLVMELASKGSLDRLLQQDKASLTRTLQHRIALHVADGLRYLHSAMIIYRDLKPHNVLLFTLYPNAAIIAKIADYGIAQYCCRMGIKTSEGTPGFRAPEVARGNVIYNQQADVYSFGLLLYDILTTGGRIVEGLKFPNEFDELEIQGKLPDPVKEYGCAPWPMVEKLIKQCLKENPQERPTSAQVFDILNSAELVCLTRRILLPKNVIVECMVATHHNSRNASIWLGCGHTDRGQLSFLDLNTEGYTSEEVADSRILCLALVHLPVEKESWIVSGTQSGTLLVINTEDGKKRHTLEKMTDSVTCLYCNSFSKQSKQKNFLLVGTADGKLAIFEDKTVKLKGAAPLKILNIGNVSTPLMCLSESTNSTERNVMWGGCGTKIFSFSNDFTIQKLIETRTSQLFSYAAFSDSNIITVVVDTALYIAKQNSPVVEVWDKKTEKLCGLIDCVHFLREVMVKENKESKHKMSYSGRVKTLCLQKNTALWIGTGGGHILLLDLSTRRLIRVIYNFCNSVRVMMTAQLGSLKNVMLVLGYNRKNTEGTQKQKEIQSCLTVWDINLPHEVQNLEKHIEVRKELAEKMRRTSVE
T2 sequence (Q5S007 970-2527): as above
T3 sequence (Q5S007 970-2527 G2019S): as the sequence (Q5S007 970-2527) above, with G1050S counted along it
T4 sequence (Q5S007 whole entry): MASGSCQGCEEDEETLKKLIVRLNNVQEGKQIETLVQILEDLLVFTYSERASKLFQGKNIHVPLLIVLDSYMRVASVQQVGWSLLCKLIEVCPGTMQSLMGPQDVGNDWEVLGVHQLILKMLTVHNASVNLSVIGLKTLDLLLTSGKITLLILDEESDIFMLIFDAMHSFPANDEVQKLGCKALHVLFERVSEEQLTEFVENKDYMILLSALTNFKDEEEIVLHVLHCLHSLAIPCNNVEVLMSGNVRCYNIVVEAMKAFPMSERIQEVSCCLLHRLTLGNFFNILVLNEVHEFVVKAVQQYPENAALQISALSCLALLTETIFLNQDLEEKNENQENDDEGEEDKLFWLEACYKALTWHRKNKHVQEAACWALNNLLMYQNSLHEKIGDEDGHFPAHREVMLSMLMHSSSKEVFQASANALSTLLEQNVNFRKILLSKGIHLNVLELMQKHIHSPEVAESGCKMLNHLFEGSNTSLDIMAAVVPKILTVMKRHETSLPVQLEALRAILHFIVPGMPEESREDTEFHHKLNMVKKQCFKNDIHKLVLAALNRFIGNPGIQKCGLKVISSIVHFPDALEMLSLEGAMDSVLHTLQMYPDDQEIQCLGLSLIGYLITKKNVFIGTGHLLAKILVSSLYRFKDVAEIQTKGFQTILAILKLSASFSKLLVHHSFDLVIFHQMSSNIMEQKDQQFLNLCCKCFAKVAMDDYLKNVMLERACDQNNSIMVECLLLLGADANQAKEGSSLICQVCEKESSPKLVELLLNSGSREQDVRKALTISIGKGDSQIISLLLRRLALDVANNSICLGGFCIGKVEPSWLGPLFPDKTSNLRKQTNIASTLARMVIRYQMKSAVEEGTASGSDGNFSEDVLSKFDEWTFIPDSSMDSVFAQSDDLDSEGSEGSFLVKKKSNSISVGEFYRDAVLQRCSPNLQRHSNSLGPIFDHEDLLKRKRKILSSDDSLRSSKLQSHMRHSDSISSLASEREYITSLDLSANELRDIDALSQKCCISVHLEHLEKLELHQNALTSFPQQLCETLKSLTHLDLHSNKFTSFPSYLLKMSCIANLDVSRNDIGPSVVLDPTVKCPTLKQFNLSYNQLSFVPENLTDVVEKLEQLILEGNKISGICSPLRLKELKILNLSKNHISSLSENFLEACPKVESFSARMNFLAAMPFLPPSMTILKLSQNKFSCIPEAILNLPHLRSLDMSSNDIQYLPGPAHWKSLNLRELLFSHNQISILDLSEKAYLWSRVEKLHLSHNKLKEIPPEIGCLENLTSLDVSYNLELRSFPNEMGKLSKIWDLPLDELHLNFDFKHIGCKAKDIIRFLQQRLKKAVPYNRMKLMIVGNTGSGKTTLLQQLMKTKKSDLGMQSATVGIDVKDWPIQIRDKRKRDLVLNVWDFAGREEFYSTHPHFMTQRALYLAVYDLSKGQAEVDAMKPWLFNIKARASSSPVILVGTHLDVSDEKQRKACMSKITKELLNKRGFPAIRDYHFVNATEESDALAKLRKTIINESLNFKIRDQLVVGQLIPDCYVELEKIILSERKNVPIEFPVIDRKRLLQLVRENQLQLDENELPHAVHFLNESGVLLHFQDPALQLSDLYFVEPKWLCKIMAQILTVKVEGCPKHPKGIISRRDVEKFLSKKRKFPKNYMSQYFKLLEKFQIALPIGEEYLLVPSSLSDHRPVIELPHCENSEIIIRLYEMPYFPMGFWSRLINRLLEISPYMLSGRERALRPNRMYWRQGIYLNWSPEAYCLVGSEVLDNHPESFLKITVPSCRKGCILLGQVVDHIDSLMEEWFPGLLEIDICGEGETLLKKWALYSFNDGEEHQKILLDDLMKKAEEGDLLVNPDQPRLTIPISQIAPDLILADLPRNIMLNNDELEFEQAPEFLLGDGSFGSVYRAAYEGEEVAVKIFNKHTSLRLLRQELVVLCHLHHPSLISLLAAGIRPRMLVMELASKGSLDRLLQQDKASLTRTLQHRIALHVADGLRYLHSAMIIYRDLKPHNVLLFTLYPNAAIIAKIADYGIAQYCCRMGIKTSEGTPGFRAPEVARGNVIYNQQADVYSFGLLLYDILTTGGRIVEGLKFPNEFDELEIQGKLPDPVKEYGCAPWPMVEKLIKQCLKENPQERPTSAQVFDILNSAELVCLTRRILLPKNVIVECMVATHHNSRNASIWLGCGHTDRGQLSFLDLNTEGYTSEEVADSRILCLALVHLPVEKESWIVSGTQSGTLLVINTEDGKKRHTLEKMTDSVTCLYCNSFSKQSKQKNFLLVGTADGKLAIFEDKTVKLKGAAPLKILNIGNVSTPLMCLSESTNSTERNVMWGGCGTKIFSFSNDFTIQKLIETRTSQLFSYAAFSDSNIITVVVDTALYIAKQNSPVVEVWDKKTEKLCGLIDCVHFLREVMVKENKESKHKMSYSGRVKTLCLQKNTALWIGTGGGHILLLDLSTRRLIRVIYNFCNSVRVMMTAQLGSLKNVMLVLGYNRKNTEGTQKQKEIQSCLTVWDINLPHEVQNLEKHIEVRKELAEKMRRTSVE

| Structure (SMILES) | IC50 (truncated LRRK2; [4]) [nM] | other results |
| --- | --- | --- |
| C[C@@H]1NCc2cccc(c2)-c2cnn3ccc(nc23)NCCNC1=O [Compound 64] | > 1000 |  |
| O=C1CCNc2ccn3ncc(c3n2)-c2cc(F)cc(c2)OCCN1 |  | ring closure, yield of all isomers (from NCCOc1cc(F)cc(-c2cnn3ccc(NCCC(=O)O)nc23)c1, amide bond, HBTU/DIPEA, DMF, 28.6 mM, 25.0 °C, 1.0 h): 18% |
| NC(=O)c1cc2cc(c1)-c1cnn3ccc(nc13)NCCN(C(=O)C1CC1)CCO2 [Compound 69] | > 1000 | melting point [1]: > 300 °C |
| COC(=O)c1cc2cc(c1)-c1cnn3ccc(nc13)N(C(=O)OC(C)(C)C)CCN(C(=O)OC(C)(C)C)CCO2 |  | ring closure, yield of all isomers (from COC(=O)c1cc(O)cc(-c2cnn3ccc(N(CCN(CCO)C(=O)OC(C)(C)C)C(=O)OC(C)(C)C)nc23)c1, ether bond, DIAD/PPh3, toluene, 8.7 mM, 90.0 °C, 3.5 h): 89% |
| O=C1CCC(=O)Nc2cccc(c2)-c2cnn3ccc(nc23)OCCCN1 [Compound 68] | > 1000 | melting point [1]: 295.1 °C |
| O=C1CCNCc2cccc(c2)-c2cnn3ccc(nc23)NCCN1 [Compound 59] | > 1000 |  |
| CN(C)CCN1CCNc2ccn3ncc(c3n2)-c2cccc(c2)OCC1=O [Example 46] | > 1000 |  |
| CN1CCC(=O)NCCNc2ccn3ncc(c3n2)-c2cccc(c2)C1 [Compound 60] | < 100 |  |
| O=C1CNc2ccn3ncc(c3n2)-c2cccc(c2)OCCCCN1 |  | ring closure, yield of all isomers (from NCCCCOc1cccc(-c2cnn3ccc(NCC(=O)O)nc23)c1, amide bond, HBTU/DIPEA, DMF, 10.0 mM, 25.0 °C, 2.0 h): 19%; melting point [1]: > 300 °C |
| O=C(CCO)N1CCNc2ccn3ncc(c3n2)-c2cccc(c2)OCC1 [Example 4] |  | IC50 [2]: < 100 nM; IC50 [3]: < 100 nM; melting point [1]: > 300 °C |
| C=CC(=O)N1CCNc2ccn3ncc(c3n2)-c2cccc(c2)OCC1 [Compound 70] | < 100 | melting point [1]: > 300 °C |
| O=C1CN(C(=O)C2CC2)CCNc2ccn3ncc(c3n2)-c2cccc(c2)N1 [Compound 67] | > 1000 |  |
| CCCC(=O)N1CCNCc2cccc(c2)-c2cnn3ccc(nc23)NCC1 [Compound 55] | > 1000 |  |
| CCC(=O)N1CCNc2ccn3ncc(c3n2)-c2cccc(c2)N(C)CC1 [Compound 71] |  | melting point [1]: > 300 °C |
| CN1CCCOc2cccc(c2)-c2cnn3ccc(nc23)NCCCC1=O [Compound 65] | > 1000 |  |
| C[C@H]1NCc2cccc(c2)-c2cnn3ccc(nc23)NCCNC1=O [Compound 62] | > 1000 |  |
| COCCC(=O)N1CCNCc2cccc(c2)-c2cnn3ccc(nc23)NCC1 [Compound 54] | 100 to 1000 |  |
| CN(C)CCC(=O)N1CCNCc2cccc(c2)-c2cnn3ccc(nc23)NCC1 [Compound 56] | > 1000 |  |
| O=C(C1CC1)N1CCNc2ccn3ncc(c3n2)-c2cccc(c2)OCC1 [Example 1] |  | IC50 [2]: < 100 nM; IC50 [3]: < 100 nM; melting point [1]: > 300 °C |
| CC(C)C(=O)N1CCNCc2cccc(c2)-c2cnn3ccc(nc23)NCC1 [Compound 53] | > 1000 |  |
| O=C(CF)N1CCNc2ccn3ncc(c3n2)-c2cccc(c2)OCC1 [Example 50] |  | IC50 (truncated LRRK2): < 100 nM |
| O=C1CNc2ccn3ncc(c3n2)-c2cccc(c2)OCCCN1 [Compound 57] | > 1000 |  |
| CN1CCNc2ccn3ncc(c3n2)-c2cccc(c2)OCC1=O [Example 5] |  | IC50 [2]: 100 to 1000 nM; IC50 [3]: 100 to 1000 nM; IC50 (full-length LRRK2): 100 to 1000 nM; melting point [1]: > 300 °C |
| O=S1(=O)CCCOc2cccc(c2)-c2cnn3ccc(nc23)NCCN1 [Example 8] |  | melting point [1]: 269 °C |
| COc1ccc2cc1OCCN(C(=O)C1CC1)CCNc1ccn3ncc-2c3n1 [Compound 66] | 100 to 1000 |  |
| CN(C)CCN1CCN(C)c2ccn3ncc(c3n2)-c2cccc(c2)OCC1=O [Compound 58] | > 1000 |  |
| O=C(C1CC1)N1CCOc2cccc(c2)-c2cnn3ccc(nc23)N(CCO)CC1 [Compound 63] | 100 to 1000 |  |
| CN1CC(=O)NCCNc2ccn3ncc(c3n2)-c2cccc1c2 [Compound 61] | > 1000 |  |
| O=C1CNc2ccn3ncc(c3n2)-c2cccc(c2)OCCOCCN1 [Compound 72] |  | ring closure, yield of all isomers (from NCCOCCOc1cccc(-c2cnn3ccc(NCC(=O)O)nc23)c1, amide bond, HBTU/DIPEA, DMF, 10.0 mM, 25.0 °C, 2.0 h): 30%; melting point [1]: 272.5 °C |

Now from value to molecule, other results behind:

| IC50 (truncated LRRK2; [4]) [nM] | Structure (SMILES) | other results |
| --- | --- | --- |
| 100 to 1000 | O=C1CNc2cccc(c2)-c2cnn3ccc(nc23)NCCN1 [Example 49] |  |
| 100 to 1000 | CCOC(=O)N1CCCNc2ccn3ncc(c3n2)-c2cccc(c2)OCC1 [Example 12] |  |
| 100 to 1000 | O=C1NCCN(C(=O)C2CC2)CCNc2ccn3ncc(c3n2)-c2cccc1c2 [Example 45] |  |
| < 100 | O=C(c1ccc[nH]1)N1CCNc2ccn3ncc(c3n2)-c2cccc(c2)OCC1 [Example 32] |  |
| < 100 | CNCC(=O)N1CCNc2ccn3ncc(c3n2)-c2cccc(c2)OCC1 [Example 37] |  |
| 100 to 1000 | CN1CCN(CC(=O)N2CCNc3ccn4ncc(c4n3)-c3cccc(c3)OCC2)CC1 [Example 39] |  |
| < 100 | O=C(C1CC1)N1CCNc2cccc(c2)-c2cnn3ccc(nc23)NCC1 [Example 35] |  |
| 100 to 1000 | O=C(N1CCNc2ccn3ncc(c3n2)-c2cccc(c2)OCC1)N1CCN(CCF)CC1 [Example 29] |  |
| < 100 | NC(=O)CN1CCNc2ccn3ncc(c3n2)-c2cccc(c2)OCC1 [Example 13] |  |
| 100 to 1000 | O=S(=O)(C1CC1)N1CCNc2ccn3ncc(c3n2)-c2cccc(c2)OCC1 [Example 34] |  |
| 100 to 1000 | CN(C)CCN1CCN(C(=O)C2CC2)CCOc2cccc(c2)-c2cnn3ccc1nc23 [Example 48] |  |
| < 100 | CN(C)C(=O)N1CCNc2ccn3ncc(c3n2)-c2cccc(c2)OCC1 [Example 11] |  |
| 100 to 1000 | COCCC(=O)N1CCCN(C)c2cccc(c2)-c2cnn3ccc(nc23)NCC1 [Example 19] |  |
| < 100 | CN(C)CCC(=O)N1CCNc2ccn3ncc(c3n2)-c2cccc(c2)OCC1 [Example 41] |  |
| 100 to 1000 | O=C(C1CC1)N1CCNCc2cccc(c2)-c2cnn3ccc(nc23)NCC1 [Example 51] |  |
| 100 to 1000 | O=C1CCCNc2ccn3ncc(c3n2)-c2cccc(c2)OCCCN1 [Example 43] |  |
| 100 to 1000 | CN1CCNc2ccn3ncc(c3n2)-c2cccc(c2)OCCCS1(=O)=O [Example 47] |  |
| < 100 | O=C(CCN1CCCC1)N1CCNc2ccn3ncc(c3n2)-c2cccc(c2)OCC1 [Example 40] |  |
| 100 to 1000 | O=C(CN1CCOCC1)N1CCNc2ccn3ncc(c3n2)-c2cccc(c2)OCC1 [Example 36] |  |
| < 100 | N#Cc1ccc2cc1OCCN(C(=O)C1CC1)CCNc1ccn3ncc-2c3n1 [Example 42] |  |
| < 100 | NC(=O)N1CCNc2ccn3ncc(c3n2)-c2cccc(c2)OCC1 [Example 38] |  |
| < 100 | O=C(c1cocn1)N1CCNc2ccn3ncc(c3n2)-c2cccc(c2)OCC1 [Example 33] |  |
| 100 to 1000 | CC(=O)N1CCNCc2cccc(c2)-c2cnn3ccc(nc23)NCC1 [Example 52] |  |
| 100 to 1000 | COCCC(=O)N1CCNc2ccn3ncc(c3n2)-c2cccc(c2)OCC1 [Example 31] |  |
| < 100 | CCC(=O)N1CCNc2cccc(c2)-c2cnn3ccc(nc23)NCC1 [Example 17] |  |
| < 100 | O=C(CCF)N1CCNc2ccn3ncc(c3n2)-c2cccc(c2)OCC1 [Example 10] |  |
| > 1000 | CC(C)N1CCNc2ccn3ncc(c3n2)-c2cccc(c2)OCC1=O [Example 44] |  |
| 100 to 1000 | CS(=O)(=O)N1CCNc2ccn3ncc(c3n2)-c2cccc(c2)OCC1 [Example 14] |  |
